Results: ChEMBL document CHEMBL5550154, “Novel biaryloxazolidinone derivatives with broad-spectrum antibacterial activity, favorable drug-like profiles and in vivo efficacy against linezolid-resistant Staphylococcusaureus” (Eur J Med Chem, 2024)
Converted amounts (≈) assume the structure as drawn.

Assays:
[1] = Microsomal stability in human liver microsomes assessed as elimination half life pretreated with compound upto 60 mins followed by NADPH addition and measured after 60 mins by LC/MS analysis; format: ADME, Microsome; settings: time < 120 min; for half-life: liver microsomes, read-out: beta t1/2
[2] = Microsomal stability in monkey liver microsomes assessed as elimination half life pretreated with compound upto 60 mins followed by NADPH addition and measured after 60 mins by LC/MS analysis; format: ADME, Macaca mulatta, Microsome; settings: rhesus monkey, time < 120 min, read-out: beta t1/2
[3] = Microsomal stability in rat liver microsomes assessed as elimination half life pretreated with compound upto 60 mins followed by NADPH addition and measured after 60 mins by LC/MS analysis; format: ADME, Microsome; settings: for half-life: liver microsomes, read-out: beta t1/2
[4] = Microsomal stability in mouse liver microsomes assessed as elimination half life pretreated with compound upto 60 mins followed by NADPH addition and measured after 60 mins by LC/MS analysis; format: ADME, Microsome; settings: time < 120 min; for half-life: liver microsomes, read-out: beta t1/2
[5] = Microsomal stability in human liver microsomes assessed as intrinsic clearance pretreated with compound upto 60 mins followed by NADPH addition and measured after 60 mins by LC/MS analysis; format: ADME, Microsome; settings: time < 120 min, read-out: CLH
[6] = Microsomal stability in dog liver microsomes assessed as intrinsic clearance pretreated with compound upto 60 mins followed by NADPH addition and measured after 60 mins by LC/MS analysis; format: ADME, Canis lupus familiaris, Microsome; settings: time < 120 min; for microsomal CLint: liver microsomes, read-out: CLH
[7] = Microsomal stability in mouse liver microsomes assessed as intrinsic clearance pretreated with compound upto 60 mins followed by NADPH addition and measured after 60 mins by LC/MS analysis; format: ADME, Microsome; settings: time < 120 min, read-out: CLH
[8] = Microsomal stability in dog liver microsomes assessed as parent compound remaining pretreated with compound upto 60 mins followed by NADPH addition and measured after 60 mins by LC/MS analysis; format: ADME, Canis lupus familiaris, Microsome; settings: time < 120 min, read-out: Stability
[9] = Microsomal stability in mouse liver microsomes assessed as parent compound remaining pretreated with compound upto 60 mins followed by NADPH addition and measured after 60 mins by LC/MS analysis; format: ADME, Microsome; settings: time < 120 min; for remaining at 2 h: liver microsomes, read-out: Stability
[10] = Stability in human plasma assessed as parent compound remaining at 37 degreeC measured upto 60 mins by HPLC analysis; format: ADME, cell-free; settings: read-out: Stability
[11] = Stability in monkey plasma assessed as parent compound remaining at 37 degreeC measured upto 60 mins by HPLC analysis; format: ADME, cell-free, Macaca mulatta; settings: rhesus monkey, read-out: Stability
[12] = Stability in mouse plasma assessed as parent compound remaining at 37 degreeC measured upto 60 mins by HPLC analysis; format: ADME, cell-free; settings: read-out: Stability
[13] = Stability in human plasma assessed as parent compound remaining at 25 degreeC measured upto 60 mins by HPLC analysis; format: ADME, cell-free; settings: for Stability: 1 h; for remaining at 1 h: read-out: Stability
[14] = Stability in monkey plasma assessed as parent compound remaining at 25 degreeC measured upto 60 mins by HPLC analysis; format: ADME, cell-free, Macaca mulatta; settings: rhesus monkey; for remaining at 1 h: read-out: Stability
[15] = Stability in dog plasma assessed as parent compound remaining at 25 degreeC measured upto 60 mins by HPLC analysis; format: ADME, cell-free, Canis lupus familiaris; settings: read-out: Stability
[16] = Stability in rat plasma assessed as parent compound remaining at 25 degreeC measured upto 60 mins by HPLC analysis; format: ADME, cell-free; settings: for remaining at 1 h: read-out: Stability
[17] = Plasma protein binding in dog incubated for 6 hrs by LC-MS/MS analysis; format: ADME, cell-free, Canis lupus familiaris; settings: read-out: PPB (converted)
[18] = Plasma protein binding in rat incubated for 6 hrs by LC-MS/MS analysis; format: ADME, cell-free; settings: read-out: PPB (converted)
[19] = Plasma protein binding in mouse incubated for 6 hrs by LC-MS/MS analysis; format: ADME, cell-free; settings: read-out: PPB (converted)
[20] = Aqueous solubility of compound at pH 2 by LC-MS/MS analysis; format: physicochemical; settings: buffer
[21] = Aqueous solubility of compound at pH 7.4 by LC-MS/MS analysis; format: physicochemical; settings: buffer
[22] = AUC (0 to t) in Sprague-Dawley rat at 1 mg/kg, iv measured upto 24 hrs by LC-MS analysis; format: ADME, organism-based; settings: in vivo
[23] = Elimination half life in Sprague-Dawley rat at 10 mg/kg, IG measured upto 24 hrs by LC-MS analysis; format: ADME, organism-based; settings: in vivo, po, read-out: beta t1/2 (converted)
[24] = Bioavailability in Sprague-Dawley rat at 10 mg/kg, IG measured upto 24 hrs by LC-MS analysis; format: ADME, organism-based; settings: in vivo, po
Cytochrome P450 1A2 = target: T1, Cytochrome P450 1A2 (Homo sapiens, UniProt P05177); experiment: Inhibition of CYP1A2 in human liver microsomes with alpha-naphthoflavone as reference inhibitor preincubated with compound for 5 mins followed by substrate addition and measured after 120 mins in presence of NADPH by LC-MS/MS analysis; format: ADME, Microsome
T1 sequence (P05177 whole entry): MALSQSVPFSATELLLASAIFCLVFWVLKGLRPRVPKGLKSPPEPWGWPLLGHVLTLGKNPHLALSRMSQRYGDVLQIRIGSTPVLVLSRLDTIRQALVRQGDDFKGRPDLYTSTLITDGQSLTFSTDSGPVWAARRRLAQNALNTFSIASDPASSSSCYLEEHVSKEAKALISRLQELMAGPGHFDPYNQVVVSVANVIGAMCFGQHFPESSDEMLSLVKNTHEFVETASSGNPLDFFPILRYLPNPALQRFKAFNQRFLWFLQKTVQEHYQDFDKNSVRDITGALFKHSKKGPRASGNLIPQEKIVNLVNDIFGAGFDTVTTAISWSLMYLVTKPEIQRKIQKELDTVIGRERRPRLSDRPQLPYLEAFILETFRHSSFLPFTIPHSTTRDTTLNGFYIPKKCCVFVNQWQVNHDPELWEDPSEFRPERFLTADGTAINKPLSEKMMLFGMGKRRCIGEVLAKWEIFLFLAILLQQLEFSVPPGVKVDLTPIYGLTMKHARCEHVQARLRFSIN

Cytochrome P450 2C9 = Cytochrome P450 2C9 (Homo sapiens, UniProt P11712); experiment: Inhibition of CYP2C9 in human liver microsomes using […] preincubated with compound for 5 mins followed by substrate addition and measured after 120 mins in presence of NADPH by LC-MS/MS analysis; format: ADME, Microsome
Chain of Cytochrome P450 2C9 (P11712 whole entry): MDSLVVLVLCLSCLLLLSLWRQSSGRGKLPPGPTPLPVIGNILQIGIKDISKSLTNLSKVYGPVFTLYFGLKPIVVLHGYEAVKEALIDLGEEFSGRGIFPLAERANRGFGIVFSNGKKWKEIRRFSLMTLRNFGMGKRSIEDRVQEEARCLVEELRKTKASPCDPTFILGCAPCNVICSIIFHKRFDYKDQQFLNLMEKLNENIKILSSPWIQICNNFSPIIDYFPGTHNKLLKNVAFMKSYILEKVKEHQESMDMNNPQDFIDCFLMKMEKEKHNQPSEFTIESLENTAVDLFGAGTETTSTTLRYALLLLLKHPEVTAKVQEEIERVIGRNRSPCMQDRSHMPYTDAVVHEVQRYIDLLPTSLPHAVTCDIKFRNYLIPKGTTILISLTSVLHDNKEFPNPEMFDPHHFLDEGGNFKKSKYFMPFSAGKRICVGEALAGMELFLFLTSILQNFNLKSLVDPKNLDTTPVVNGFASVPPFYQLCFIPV

Cytochrome P450 2C19 = Cytochrome P450 2C19 (Homo sapiens, UniProt P33261); experiment: Inhibition of CYP2C19 in human liver microsomes […] preincubated with compound for 5 mins followed by substrate addition and measured after 120 mins in presence of NADPH by LC-MS/MS analysis; format: ADME, Microsome
Chain of Cytochrome P450 2C19 (P33261 whole entry): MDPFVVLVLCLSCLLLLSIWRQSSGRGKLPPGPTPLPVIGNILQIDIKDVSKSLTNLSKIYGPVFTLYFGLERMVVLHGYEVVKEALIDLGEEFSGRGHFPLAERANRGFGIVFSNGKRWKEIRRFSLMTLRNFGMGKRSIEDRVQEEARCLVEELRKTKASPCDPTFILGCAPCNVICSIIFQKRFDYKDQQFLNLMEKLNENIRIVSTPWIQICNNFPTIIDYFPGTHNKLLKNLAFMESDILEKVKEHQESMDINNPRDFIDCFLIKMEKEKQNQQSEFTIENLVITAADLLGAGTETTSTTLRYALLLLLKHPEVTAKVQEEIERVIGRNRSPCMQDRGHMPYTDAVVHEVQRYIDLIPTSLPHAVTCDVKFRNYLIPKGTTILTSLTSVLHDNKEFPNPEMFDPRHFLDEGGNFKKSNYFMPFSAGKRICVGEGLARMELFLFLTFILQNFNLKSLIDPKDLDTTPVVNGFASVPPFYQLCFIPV

Cytochrome P450 2D6 = Cytochrome P450 2D6 (Homo sapiens, UniProt P10635); experiment: Inhibition of CYP2D6 in human liver microsomes […] preincubated with compound for 5 mins followed by substrate addition and measured after 120 mins in presence of NADPH by LC-MS/MS analysis; format: ADME, Microsome
Chain of Cytochrome P450 2D6 (P10635 whole entry): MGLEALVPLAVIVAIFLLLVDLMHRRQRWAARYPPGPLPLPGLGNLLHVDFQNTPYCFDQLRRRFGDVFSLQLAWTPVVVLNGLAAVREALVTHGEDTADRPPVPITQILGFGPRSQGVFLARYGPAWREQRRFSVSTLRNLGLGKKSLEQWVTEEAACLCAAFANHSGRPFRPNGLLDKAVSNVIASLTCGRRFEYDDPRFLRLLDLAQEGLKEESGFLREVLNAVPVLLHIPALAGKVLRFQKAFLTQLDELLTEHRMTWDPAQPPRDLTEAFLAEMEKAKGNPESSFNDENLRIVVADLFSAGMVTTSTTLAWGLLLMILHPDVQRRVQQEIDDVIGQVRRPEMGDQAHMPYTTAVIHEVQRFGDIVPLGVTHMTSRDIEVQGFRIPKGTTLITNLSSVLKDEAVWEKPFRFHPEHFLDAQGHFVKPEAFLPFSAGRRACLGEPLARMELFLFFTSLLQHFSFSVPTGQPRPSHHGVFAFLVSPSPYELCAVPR

[25] = Half life in ICR mouse at 1 mg/kg, iv measured upto 24 hrs by LC-MS analysis; format: ADME, organism-based; settings: in vivo
[26] = Clearance in ICR mouse at 1 mg/kg, iv measured upto 24 hrs by LC-MS analysis; format: ADME, organism-based; settings: in vivo
[27] = Volume of distribution at steady state in ICR mouse at 1 mg/kg, iv measured upto 24 hrs by LC-MS analysis; format: ADME, organism-based; settings: in vivo, read-out: Vdss
[28] = Tmax in ICR mouse at 10 mg/kg, IG measured upto 24 hrs by LC-MS analysis; format: ADME, organism-based; settings: in vivo, po
[29] = Half life in ICR mouse at 10 mg/kg, IG measured upto 24 hrs by LC-MS analysis; format: ADME, organism-based; settings: in vivo, po

Row | SMILES | half-life [2] | half-life [3] | half-life [4] | microsomal CLint [5] | microsomal CLint [7] | remaining at 2 h [8] | remaining at 2 h [9] | remaining at 1 h [10] | remaining at 1 h [11] | remaining at 1 h [12] | remaining at 1 h [15] | fraction unbound at 6 h [17] | fraction unbound at 6 h [18] | fraction unbound at 6 h [19] | AUC(0-t) at 24 h [22] | half-life [23] | IC50 (Cytochrome P450 1A2) | IC50 (Cytochrome P450 2C9) | IC50 (Cytochrome P450 2C19) | IC50 (Cytochrome P450 2D6) | further results
1 | O=C1O[C@@H](CO)CN1c1ccc(-c2ccc(/C=N/N3CCS(=O)(=O)CC3)nc2)c(F)c1 | 9.68 h | 12.1 h | 32.5 h | 1.51 µL/min/mg | 1.07 µL/min/mg | 97% | 96% | 104% | 103% | 102% | 113% | 0.275 | 0.096 | 0.245 | 1120 ng·h/mL | 4.28 h | > 30 µM | > 30 µM | > 30 µM | > 30 µM | half-life [1]: 15.3 h; CLH ([6]; microsomes, 2 h): 0.804 µL/min/mg; Stability [13]: 126%; Stability ([14]; 1 h): 144%; remaining at 1 h [16]: 113%; solubility [20]: 72.2 µM (≈ 32.4 µg/mL); solubility [21]: 20 µM (≈ 8.97 µg/mL); bioavailability [24]: 19.8%
2 | O=C1O[C@@H](CO)CN1c1ccc(-c2ccc(/C=N/N3CCCCC3)nc2)c(F)c1 | 1.34 h | 1.61 h | 2.5 h | 11.8 µL/min/mg | 9.37 µL/min/mg | 67.4% | 75.2% | 118% | 105% | 111% | 97.4% | 0.017 | 0.006 | 0.013 | 1400 ng·h/mL | 2.72 h | > 30 µM | 5.38 µM | 0.858 µM | > 30 µM | beta t1/2 ([1]; microsomes, 2 h): 2 h; microsomal CLint [6]: 13.1 µL/min/mg; Stability [13]: 149%; remaining at 1 h [14]: 120%; Stability ([16]; 1 h): 124%; solubility [20]: 58.4 µM (≈ 23.3 µg/mL); solubility [21]: 9.94 µM (≈ 3.96 µg/mL); bioavailability [24]: 51.1%; half-life [25]: 1.54 h; clearance [26]: 13.9 mL/min/kg; Vd [27]: 1.31 L/kg; Tmax [28]: 2 h
3 | CC(C)N/N=C/c1ccc(-c2ccc(N3C[C@H](CO)OC3=O)cc2F)cn1 | 1.68 h |  |  | 5.78 µL/min/mg | 18.4 µL/min/mg | 76.7% |  | 107% | 106% | 80.2% | 112% | 0.074 | 0.018 | 0.048 | 1580 ng·h/mL | 1.94 h | > 30 µM | > 30 µM | 11 µM | > 30 µM | half-life [1]: 4.68 h; beta t1/2 ([3]; microsomes, 1 h): 1.87 h; beta t1/2 ([4]; microsomes, 2 h): 1.26 h; microsomal CLint [6]: 8.78 µL/min/mg; Stability ([9]; microsomes, 2 h): 57.9%; remaining at 1 h [13]: 112%; remaining at 1 h [14]: 108%; remaining at 1 h [16]: 111%; solubility [20]: 56.4 µM (≈ 21 µg/mL); solubility [21]: 30.2 µM (≈ 11.2 µg/mL); bioavailability [24]: 65.8%; half-life [25]: 0.34 h; clearance [26]: 34.9 mL/min/kg; Vd [27]: 0.42 L/kg; half-life [29]: 3.3 h; Tmax [28]: 0.25 h
4 | O=C1O[C@@H](CO)CN1c1ccc(-c2ccc(/C=N/N3CCOCC3)nc2)c(F)c1 | 7.78 h | 10.2 h | 12.2 h | 12.7 µL/min/mg | 2.02 µL/min/mg | 96.8% | 96% | 98.6% | 103% | 98.3% | 107% | 0.169 | 0.041 | 0.117 | 1220 ng·h/mL | 1.49 h | > 30 µM | > 30 µM | > 30 µM | > 30 µM | half-life [1]: 1.83 h; microsomal CLint [6]: 1.51 µL/min/mg; remaining at 1 h [13]: 102%; remaining at 1 h [14]: 113%; remaining at 1 h [16]: 116%; solubility [20]: 52.6 µM (≈ 21.1 µg/mL); solubility [21]: 10.9 µM (≈ 4.36 µg/mL); bioavailability [24]: 68.1%; half-life [25]: 2.1 h; clearance [26]: 5.9 mL/min/kg; Vd [27]: 0.87 L/kg; half-life [29]: 2.85 h; Tmax [28]: 2 h
5 | CC(=O)NC[C@H]1CN(c2ccc(N3CCOCC3)c(F)c2)C(=O)O1 [LINEZOLID] | 51.8 h | 10.4 h | 10.6 h |  | 2.18 µL/min/mg | 97.8% | 92.3% | 110% | 105% | 105% | 99.1% | 0.829 | 0.639 | 0.721 | 719 ng·h/mL | 1.08 h | > 30 µM | > 30 µM | > 30 µM | > 30 µM | microsomal CLint [6]: 0.667 µL/min/mg; remaining at 1 h [13]: 99.4%; remaining at 1 h [14]: 99.4%; remaining at 1 h [16]: 99.2%; half-life [25]: 0.39 h; clearance [26]: 20.6 mL/min/kg; Vd [27]: 0.56 L/kg; half-life [29]: 0.8 h; Tmax [28]: 0.25 h
